# Measurements as given in patent US20240016924A1, “NEW ADJUVANT TO IMPROVE THE INNATE IMMUNITY” (INSTITUT NATIONAL DE LA SANTÉ ET DE LA RECHERCHE MÉDICALE, priority 2020, published 2024).
# Key:
# [1] = system: primary human nasal epithelial cells (HNECs); test: TSLP secretion in primary human nasal epithelial cells; format: cell-based; conditions: GalCer-dependent
# Experimental: Primary human nasal epithelial cells (HNECs, purchased from PromoCell, Heidelberg, Germany) were isolated from nasal septum or adenoids of healthy donors. Cells from two independent donors were obtained. HNECs were cultured in airway epithelial cell basal medium (PromoCell) and supplemented with airway epithelial cell growth SupplementMix (PromoCell) and only cells from passage 2 to 6 were used.
# (§1) TSLP, IL-25/IL-17E, IL-33, IFN-γ, IL-10, IL-12/23p40, IL-4, IL-5, IL-6, IL-13, TNF-α, MMP-9, IL-8/CXCL8, […], MDC/CCL22, TARC/CCL17, APRIL and BAFF were measured in culture supernatants from indicated experiments with custom multiplex Luminex assays (Bio-techne) according to the manufacturer's instructions. Additionally, when indicated TSLP was measured in culture supernatants by enzyme-linked immunosorbent assay (ELISA) with a limit of detection of 8 pg/ml (Thermo Fisher) according to the manufacturer's instructions.
# autologous CD4+ T cells = test: DC-T co-cultures, CD4+ T cell proliferation (CFSE); format: cell-based, human
# Experimental: Autologous CD4+ T cells were purified from PMBCs by negative selection according to manufacturer instructions (StemCell Technologies, France) (purity>95%)
# DCs and confluent ECs were co-cultured overnight as described above, and DC-EC or eduDC was further incubated with P1 (clade B, 125 μM) or medium for 24 h. Then, DCs were separated and incubated with autologous CD4+ T cells pre-labeled with CFSE (Thermo Fisher) according to the manufacturer's instructions, at a ratio of 1:5 (DC/T). After 5 days of culture, CD4+ T cell proliferation was analyzed by flow cytometry as described (Yeh, Yeh et al. 2013, Qin, Yin et al. 2015) using Phytohaemagglutinin (PHA) (5 μg/mL) as positive control.
# nasal RPMI cells = test: Calcium measurement (Fura-2/AM), nasal RPMI cells; format: cell-based, human; conditions: P1 125 μM vs 2511M, controls at 125 μM, n=3
# Experimental: (§2) 70-80% confluent RPMI 2650 or HNEC cells in 24-well plate were loaded with […] Fura-2/AM (Molecular Probes) in basal medium without serum/growth factors for 1 hour at 37° C. Cells were washed twice with mammalian saline (Conche, Boulla et al. 2009) and measurements were performed in complete medium supplied with HEPS (10 mM) and CaCl2 (2 mM) as described add (Conche, Boulla et al. 2009). Images were acquired with an inverted fluorescence microscope (Observer Z1, Zeiss, Germany) and analyzed with MetaMorph software (Guichard, Bonilla et al. 2017) Calcium was measured every 5 seconds by video fluorescence imaging. Results were expressed as 340 nm to 380 nm fluorescence ratio and normalized to the baseline, i.e. ratio at time zero was set as 1.
# RPMI 2650 cells = test: TSLP secretion in nasal RPMI 2650 cell culture supernatants (ELISA); format: cell-based, human
# Experimental: Nasal RPMI 2650 cells (isolated from the human nasal septum, squamous cell carcinoma, ATCC) were grown in MEMα (Minimum Essential Medium α, Thermo Fisher) supplemented with 10% fetal calf serum (FCS, Eurobio, Courtaboeuf, France) and 1% penicillin/streptomycin.
# as §1
# We first investigate whether P1 induced TSLP secretion in nasal epithelium. Therefore, we cultured human nasal epithelial cells (RPMI 2650) with P1 Glade B for 2-24 hours at 37° C. and analyzed the culture supernatants for TSLP secretion.
# primary HNECs [2] = test: MicroRNA microarray analysis and miR qPCR after P1 stimulation; format: cell-based, human
# Experimental: Confluent HNECs in 12-well plate were stimulated with medium or P1 (clade B, 125 μM) for 6 hours, at 37° C. Total RNA was extracted using Trizol. Before analysis, lfTSLP RNA up-regulation was confirmed by qPCR as described above and RNA quality was assessed with Agilent 2100 bioanalyzer according to manufacturer instructions (Agilent Technologies). Three untreated and treated paired samples from three independent experiments were analyzed by GeneChip miRNA 4.0 arrays (Affymetrix, Thermo Fisher) containing probes for 2578 human mature microRNAs and 2025 pre-mature microRNAs (https://assets.thermofisher.com/TFS-Assets/LSG/brochures/miRNA_4-0_and_4-1_datasheet.pdf). Potential microRNA targets were analyzed with the Ingenuity Pathway Analysis (IPA) software (Qiagen).
# The quantification and knockdown of microRNA were performed as previously described with some modifications (Zhou, Xu et al. 2018). Briefly, total RNA was purified using MinElute PCR Purification Kit (Qiagen), the expression level of miR-4485 was quantified with TaqMan Small RNA Assays (Thermo Fisher). Reactions were performed in triplicates, and U6 was used as endogenous control. In order to knockdown miR-4485, 70% confluent HNEC cells were transfected with anti-miR-4485 inhibitor (67 nM, Qiagen) or mock inhibitor (miSCRIPT inhibitor negative control, 67 nM, Qiagen) using Lipofectamine RNAiMAX (Invitrogen) as described by the manufacturer. 36 h after transfection, miR-4485 expression, when quantified as described above, was reduced by 50-60% in anti-miR-4485 transfected cells as compared to anti-miR control (n=3 independent experiments).
# primary HNECs [3] = test: Quantitative RT-PCR for short and long form TSLP, primary HNECs; format: cell-based, human
# Experimental: The expression of short and long form TSLP was quantified as described (Bjerkan, Schreurs et al. 2015, Dong, Hu et al. 2016). Briefly, total RNA was extracted using Trizol. Five hundred nanograms of RNA were treated with ezDNase Enzyme (Thermo Fisher) to remove genomic DNA, and reverse transcribed into cDNA using the kit SuperScript IV VILO Master Mix according to manufacturer instructions (Thermo Fisher). Quantitative PCR was performed using reported primers (Dong, Hu et al. 2016) and the PowerUp SYBR Green Master Mix according to manufacturer instructions (Thermo Fisher). Reactions were performed in triplicates, with glyceraldehyde-3-phosphate dehydrogenase (GAPDH) as the internal control. Amplification, data acquisition, and analysis were carried out using the LightCycler 480 Software (Roche, Mannheim, Germany). The levels of TSLP mRNA were normalized to the levels of GAPDH using the ΔCt method (Schmittgen and Livak 2008) and were presented as 2-ΔCt values.
# primary HNEC cells = test: Calcium measurement (Fura-2/AM), primary HNEC cells; format: cell-based, human; conditions: P1 125 μM vs 2511M, controls at 125 μM, n=3
# Experimental: as §2
sequence,measurement,setting,value
SQNQQEKNEQELLELDKWASLWNWFNITNWLWYIK [P1],TSLP secretion,[1],induces primary human nasal epithelial cells (HNECs) to secrete TSLP
same,proliferation of CD4+ T cells,autologous CD4+ T cells; P1 stimulation on CD4+ T cells alone,has no effect
same,proliferation of autologous CD4+ T cells,"autologous CD4+ T cells; peptide-primed eduDCs, 125 μM, 5 days, DC/T 1:5",induced the proliferation of autologous CD4+ T cells
same,extracellular calcium influx (340/380 nm ratio),nasal RPMI cells,induces an immediate extracellular calcium influx in a concentration-dependent manner
same,TSLP secretion time course,RPMI 2650 cells; 2-24 hours at 37° C.,reaching a plateau from 4 to 24 h
same,TSLP secretion,"RPMI 2650 cells; P1 5, 25, 125 μM, 2 h to 4 h, compared with medium and scramble peptides",upregulates TSLP secretion in a dose-dependent manner
same,"TSLP secretion, trimeric versus monomeric state",RPMI 2650 cells; P1 at 125 μM versus 5 μM and 25 μM,significantly higher secretion of TSLP
same,Secretion of TSLP,"RPMI 2650 cells; peptide at 125 uM, 4 hours, n=5",52.3 ± 3.4 pg/mL
same,"miR-4485-3p increase, microRNA array","primary HNECs [2]; P1 125 μM, 6 hours",> 9 fold
same,number of differentially expressed microRNAs,"primary HNECs [2]; P1 125 μM, 6 hours, microRNA array, p<0.05, 23 up-regulated, 16 down-regulated",39
same,miR-375 expression,"primary HNECs [2]; primary HNECs, P1 stimulation",not accompanied by a change in miR-375 expression
same,"increase in miR-4485-3p expression, qPCR","primary HNECs [2]; upon P1 stimulation, n=4",2.6±0.8 fold
same,increase of lfTSLP transcription compared to unstimulated cells,"primary HNECs [3]; HNECs, p=0.004, n=6",5.9 fold
same,level of the sfTSLP transcript,"primary HNECs [3]; upon P1 stimulation, primary HNECs",remains unchanged
same,extracellular calcium influx (340/380 nm ratio),primary HNEC cells,induces an immediate extracellular calcium influx in a concentration-dependent manner
